Measurements published in patent US4703050A, “Methods of inducing neuron protective activity” (Roussel Uclaf, priority 1985, dated 1987).

Tests used:
Assay type in all cases: in vivo
[1] = Asphysic Anoxemia Test (electroencephalogram survival); conditions: mice, curare, 2 mg/kg, respiratory assistance stopped; for increase in the time necessary for the electroencephalogram to disappear: vs control animals
Experimental: Curare was administered to mice which were placed under assisted respiration and the products to be tested were administered at a dose of 2 mg/kg, and the respiratory assistance was stopped.

[2] = Acute Toxicity Study (LD0); conditions: mice, oral administration
From the text: The result obtained was LD0 in mg/kg =200.

Hypobaric Anoxemia Test = conditions: male mice, 15 min before 190 mm Hg, vs control animals
Experimental: Male mice weighing 20-22 g were used having eaten nothing for 5 hours and they were divided into groups of 10 animals. The product to be tested was administered to the animals subcutaneously. […] The increase in the survival time, expressed as a percentage was calculated for the treated animals in comparison with control animals submitted to the same conditions.

enolase γγ = experiment: Enolase Test (kainic acid-induced neuron lesion); conditions: mice, 1 mg/kg intraperitoneally
Experimental: Injured cerebral cells release enolase γγ which is a specific indicator of neuron lesion. In this test, the lesions were induced in the mice by sub-cutaneous injection of 35 mg/kg of kainic acid.

| Structure (SMILES) | electro-encephalographic survival [1] | increase in the time necessary for the electroencephalogram to disappear [1] | LD0 (maximum dose which did not cause mortality in 8 days) [2] | % Increase in the survival time (Hypobaric Anoxemia Test; 1 mg/kg subcutaneously) | % Increase in the survival time (Hypobaric Anoxemia Test; 10 mg/kg subcutaneously) | decrease in the serous concentration of enolase (enolase γγ; 1 hour before 35 mg/kg s.c. kainic acid) | protection of cerebral cells in the affected area (enolase γγ; 1 hour before kainic acid) |
| --- | --- | --- | --- | --- | --- | --- | --- |
| CSC[C@@H]1C[C@@H]2c3cccc4[nH]cc(c34)C[C@H]2N(C)C1 [Product A, 6-methyl-8β-(methylthiomethyl)-ergoline] | prolong the electro-encephalographic survival | 10% | 200 mg/kg | 12% | 57% | 29% | protected the cerebral cells in the affected area |
| CSC[C@@H]1C=C2c3cccc4[nH]cc(c34)C[C@H]2N(C)C1 [Product B, 6-methyl-8β-methylthiomethyl-9,10-didehydroergoline] | prolong the electro-encephalographic survival | 11% |  |  |  |  |  |
